Laboratory results from PMC11124341, “4-Hydroxybenzoic Acid-Based Hydrazide–Hydrazones as Potent Growth Inhibition Agents of Laccase-Producing Phytopathogenic Fungi That Are Useful in the Protection of Oilseed Crops” (Molecules, 2024).
≈ marks a conversion by molar mass, not a printed value.

Assays:
[1] = test system: Sclerotinia sclerotiorum strain FSc10; assay: In vitro antifungal activity, mycelial growth inhibition on PDA medium; type: cell-based; settings: for IC50: log-logistic model, 0–50 µg/mL range, read-out: IC50 against Sclerotinia sclerotiorum (Ss); for inhibition of growth at 50 µg/mL / fungal growth inhibition, S. sclerotiorum: screening at basal 50 µg/mL, PDA medium, mean ± SD of three determinations; for inhibition of growth at 50 µg/mL: read-out: fungal growth inhibition, S. sclerotiorum
Description: (§1) The cultures of Botrytis cinerea strain FBc05 and Sclerotinia sclerotiorum strain FSc10 were obtained from the collection of the Division of Plant Pathology and Mycology at the Department of Plant Protection of Wroclaw University of Environmental and Life Sciences (Poland). Cerrena unicolor (Bull.ex.Fr.) Murr, strain no. 139, originated from the culture collection of the Department of Biochemistry, University of Lublin (Poland). The stock cultures were maintained on potato dextrose agar at +4 °C and periodically transferred to a fresh medium.
(§2) Prior to the fungicidal activity assay of hydrazide–hydrazones 1–35, we considered ethanol and DMSO as potential dissolution media for tested compounds. […] Furthermore, a very important aspect of biological testing is the careful selection of organic solvents. These are typically used, e.g., methanol, ethanol, acetone, and DMSO, and may be highly toxic for microorganisms in even very low concentrations, such as 1% (v/v). Ethanol and DMSO with a final concentration between 0.1 and 1.0% (v/v) in a PDA medium were used and applied to evaluate the inhibition growth of B. cinerea, S. sclerotiorum, and C. unicolor (see Supplementary Materials). The following procedure was applied to the microorganism testing. The assays of fungi inhibition growth were performed at a basal concentration of 50 µg/mL for all compounds, and detailed experiments were extended for testing between 0 and 50 µg/mL (0, 6.25, 12.5, 25.0, and 50.0 µg/mL) for selected compounds. The tests were carried out on Petri dishes (diameter 60 mm) with PDA medium containing appropriate compound, co-solvent control, and hydrazide–hydrazone dissolved in co-solvent assay. A piece of mycelium with a 5 mm edge taken from the outer edge of the growing fungi on the PDA plate with co-solvent was transferred to a central part of the PDA plate with the examined compound. The plates thus inoculated were incubated at 22 °C in the dark for a time when the control plate containing only the co-solvent was covered entirely with the tested microorganism. For B. cinerea and S. sclerotiorum, the test took 3 days, and for C. unicolor, it took 7 days. Each assay was performed at least in triplicate. […] Model parameters c and e were estimated using the nonlinear least-squares method. Parameters d and b (with two exceptions) were fixed and assumed to be equal. Based on estimated parameters, the values of IC50 were determined. […] The IC50 values were calculated only in cases when the model predicted a decrease in growth rate by more than 50%.
(§3) In vitro antifungal activity
(§4) Prior to the fungicidal activity assay of hydrazide-hydrazones 1–35, we considered ethanol (EtOH) and DMSO as potential dissolution media for tested compounds.
(§5) EtOH and DMSO with a final concentration between 0.1–1.0% (v/v) in a PDA medium were applied to evaluate the inhibition growth of B. cinerea, S. sclerotiorum, and C. unicolor (see Table S3). The following procedure was applied to the microorganism testing with the hydrazide-hydrazones. The assays of fungi inhibition growth were performed at a basal concentration of 50 µg/mL for all compounds, and detailed experiments were extended for testing selected molecules 18, 19, 27, […]
(§6) Table S2. In vitro antifungal activity for DMSO and ethanol co-solvents.

[2] = test system: Botrytis cinerea strain FBc05; assay: as above; type: cell-based; settings: for IC50: log-logistic model, 0–50 µg/mL range, read-out: IC50 against Botrytis cinerea (Bc); for inhibition of growth at 50 µg/mL / fungal growth inhibition, B. cinerea: screening at basal 50 µg/mL, PDA medium, mean ± SD of three determinations; for inhibition of growth at 50 µg/mL: read-out: fungal growth inhibition, B. cinerea
Description: as §1, §2, §3, §4, §5, §6

[3] = test system: Cerrena unicolor strain no. 139; assay: as above; type: cell-based; settings: for inhibition of growth at 50 µg/mL / fungal growth inhibition, C. unicolor: screening at basal 50 µg/mL, PDA medium, mean ± SD of three determinations; for inhibition of growth at 50 µg/mL: read-out: fungal growth inhibition, C. unicolor
Description: as §1, §2, §3, §4, §5, §6

[4] = target: laccase from Trametes versicolor; settings: read-out: Laccase inhibition, Ki; cited from earlier work
[5] = Sclerotinia sclerotiorum, FSC10

| SMILES | inhibition of growth at 50 µg/mL ([2]; Botrytis cinerea, FBC05) | inhibition of growth at 50 µg/mL ([3]; Cerrena unicolor, NO.139) | fungal growth inhibition, S. sclerotiorum [1] | Ki [4] | fungal growth inhibition, B. cinerea [2] | also measured |
| --- | --- | --- | --- | --- | --- | --- |
| CCO [EtOH, ethanol] | – | – | – | – | – | IC50 of co-solvent, S. sclerotiorum ([1]; co-solvent at 0.1–1.0% (v/v) in PDA medium): n.o. |
| CC1(C(=O)Nc2ccc(O)c(Cl)c2Cl)CCCCC1 [Fenhexamid, reference compound] | 99.9 ± 0.4% | 39.9 ± 0.7% | – | – | – | inhibition at 6.25 µg/mL ([2]; Botrytis cinerea, FBC05, fungicidal profile, 6.25 µg/mL, read-out: B. cinerea inhibition): 98.5%; inhibition at 50 µg/mL ([2]; Botrytis cinerea, FBC05, fungicidal profile, 50 µg/mL, read-out: B. cinerea inhibition): 100%; IC50 ([2]; Botrytis cinerea, FBC05): 0.1 µg/mL (≈ 0.331 µM); inhibition at 50 µg/mL ([3]; Cerrena unicolor, NO.139, fungicidal profile, 50 µg/mL, read-out: C. unicolor inhibition): 32.1%; inhibition at 6.25 µg/mL ([1]; Sclerotinia sclerotiorum, FSC10, fungicidal profile, 6.25 µg/mL, read-out: S. sclerotiorum inhibition): 95.6%; inhibition at 12.5 µg/mL ([1]; Sclerotinia sclerotiorum, FSC10, fungicidal profile, 12.5 µg/mL, read-out: S. sclerotiorum inhibition): 96.3%; IC50 [1, 5]: 4.2 µg/mL (≈ 13.9 µM); inhibition of growth at 50 µg/mL [1, 5]: 100 ± 0.3% |
| O=C(N/N=C/c1ccccc1)c1ccc(O)cc1 [compound 1] | 2.6 ± 0.2% | 10.6 ± 1.1% | n.o. | 1470 µM | – | – |
| O=C(N/N=C/CCc1ccccc1)c1ccc(O)cc1 [compound 2] | – | 18 ± 3.2% | n.o. | 1920 µM | n.o. | – |
| Cc1ccc(/C=N/NC(=O)c2ccc(O)cc2)cc1 [compound 3] | 3.3 ± 1.1% | – | n.o. | 251 µM | – | fungal growth inhibition, C. unicolor [3]: n.o. |
| CC(C)c1ccc(/C=N/NC(=O)c2ccc(O)cc2)cc1 [compound 4] | 12 ± 2.6% | 20.9 ± 2.8% | n.o. | – | – | – |
| O=C(N/N=C/c1ccccc1S(=O)(=O)[O-])c1ccc(O)cc1.[Na+] [compound 5] | – | 23.6 ± 4.2% | n.o. | ≥ 2400 µM | n.o. | – |
| O=C(N/N=C/c1ccccc1O)c1ccc(O)cc1 [compound 6] | 4.7 ± 1.1% | 14.7 ± 0.3% | n.o. | 674 µM | – | – |
| O=C(N/N=C/c1cccc(O)c1)c1ccc(O)cc1 [compound 7] | 3.7 ± 1.8% | 12.6 ± 4.1% | n.o. | 2400 µM | – | – |
| O=C(N/N=C/c1ccc(O)cc1)c1ccc(O)cc1 [compound 8] | 4.2 ± 1.5% | 14.3 ± 1.7% | n.o. | 638 µM | – | – |
| COc1ccccc1/C=N/NC(=O)c1ccc(O)cc1 [compound 9] | 3.3 ± 1.2% | 22.3 ± 2.6% | n.o. | 1060 µM | – | – |
| COc1cccc(/C=N/NC(=O)c2ccc(O)cc2)c1 [compound 10] | 3.9 ± 2.4% | – | n.o. | 416 µM | – | fungal growth inhibition, C. unicolor [3]: n.o. |
| COc1ccc(/C=N/NC(=O)c2ccc(O)cc2)cc1 [compound 11] | 4.4 ± 0.9% | 11.7 ± 3.5% | n.o. | ≥ 2400 µM | – | – |
| O=C(N/N=C/c1ccc([N+](=O)[O-])o1)c1ccc(O)cc1 [compound 12, Nifuroxazide, reference compound] | 3.3 ± 1.2% | 19.5 ± 2.8% | no activity and n.o. | – | no activity | – |
| O=C(N/N=C/c1cc(Br)ccc1O)c1ccc(O)cc1 [compound 14] | – | 56.8 ± 8.4% | n.o. | ≥ 1000 µM | n.o. | – |
| COc1cccc(O)c1/C=N/NC(=O)c1ccc(O)cc1 [compound 15] | – | 43.1 ± 3% | n.o. | ≥ 1000 µM | n.o. | – |
| COc1cccc(OC)c1/C=N/NC(=O)c1ccc(O)cc1 [compound 16] | – | 32.1 ± 3.1% | n.o. | ≥ 1000 µM | n.o. | – |
| COc1ccc(C(=O)N/N=C/c2cccc(-c3ccccc3)c2O)cc1 [compound 20] | 3.3 ± 1.2% | 35.4 ± 2.4% | n.o. | ≥ 1000 µM | – | – |
| O=C(N/N=C/c1ccc(O)cc1O)c1ccc(O)cc1 [compound 21] | – | 30.1 ± 4.3% | n.o. | 939 µM | n.o. | – |
| Cc1cc(CO)cc(/C=N/NC(=O)c2ccc(O)cc2)c1O [compound 24] | – | 42 ± 2.1% | n.o. | ≥ 1000 µM | n.o. | – |
| Cc1ccc(C(C)C)c(O)c1/C=N/NC(=O)c1ccc(O)cc1 [compound 28] | 50.8 ± 2.6% | 38.2 ± 2.3% | – | > 1000 µM | – | IC50 ([2]; Botrytis cinerea, FBC05): 52.7 µg/mL (≈ 169 µM); IC50 [1, 5]: 9.8 µg/mL (≈ 31.4 µM); inhibition of growth at 50 µg/mL [1, 5]: 91.4 ± 2.2% |
| COc1cc(O)c(/C=N/NC(=O)c2ccc(O)cc2)c(OC)c1 [compound 29] | 8.1 ± 0.6% | 9.1 ± 1.9% | n.o. | ≥ 1000 µM | – | – |
| COc1ccc(C(=O)N/N=C/c2cc(C)cc(C(C)(C)C)c2O)cc1 [compound 31] | 2.1 ± 0.9% | 13.8 ± 3.9% | n.o. | 25.8 µM | – | – |
| Cc1cc(/C=N/NC(=O)c2ccccc2)c(O)c(C(C)(C)C)c1 [compound 33] | 3.9 ± 0.6% | 36.6 ± 1.2% | n.o. | 82 µM | – | – |
| Cc1cc(/C=N/NC(=O)c2cccnc2)c(O)c(C(C)(C)C)c1 [compound 34] | 7.5 ± 0.6% | 29.6 ± 2.7% | n.o. | – | – | – |
| CC(=O)NN=Cc1cc(C)cc(C(C)(C)C)c1O [compound 35] | – | 45.7 ± 0.5% | n.o. | ≥ 1000 µM | n.o. | – |
